These results are taken from patent US8815812B2, “Synthetic arginine substituted peptides and their use” (Inger Mattsby-Baltzer, priority 2007, dated 2014).

Where no end group is shown, it is not given here. A value given as a limit tells only on which side of the number the result lay.

Common to all, as to test: Antimicrobial assay (MMC99) in 1% Bactopeptone
Holding throughout (format): cell-based
Conditions in all cases: 99% reduction of the inoculum

One assay deals with C. albicans. The method, then: (§1) [NT] […] Washed cells were suspended in 1% Bactopeptone (BP) (Difco, USA). The concentration of bacterial or fungal cells was spectrophotometrically adjusted. Peptides serially diluted in BP by twofold steps were added in duplicate or triplicate to the wells of a microtiterplate (200 μl per well). The bacterial or yeast cell solutions were added in 10 μl volumes to give a final concentration of approximately 2×10^5 cells per ml. The concentration of the stock solution was always checked by viable counts. The microplate was incubated at 37° C. in a humid chamber for 2 h unless otherwise stated. Five μl were taken from each well and added as a drop onto a blood agar plate and incubated over night at 37° C. The concentration of lactoferrin or peptide causing a 99% reduction of the inoculum was defined as the MMC99.

The subject of the next assay is E. coli. The method, then:
as §1

The subject of a further assay is S. aureus. The method, then:
as §1

For “GRRRRSVQWCAVSQPEATKCFQWQRNMRKVR (cysteine pairing not given here) [HLBD31]”, the MMC99 in the assay on C. albicans (2 h) is 25 µg/mL; in the assay with C. albicans (24 h) it was 38 µg/mL; in the assay with E. coli (2 h), greater than 100 µg/mL; in the assay on E. coli (24 h), 50 µg/mL; with S. aureus (2 h), 100 µg/mL; in the assay with S. aureus (24 h), 100 µg/mL.
